Data reported in patent US10517849B2, “LSD1 inhibitors and medical uses thereof” (Constellation Pharmaceuticals, Inc., priority 2016, dated 2019).
Counter-ions that a name gives are not always drawn.

Key:
[1] = system: LY-96 mRNA induction in MV4-11 cells; test: LSD1 LY96 Quantigene Assay; assay type: cell-based; conditions: Homo sapiens, 16 h, Quantigene 2.0
Method: MV4-11 cells were cultured at a density of 4×10^4 cells per well in a 96-well plates and treated with various doses inhibitor starting from 10 μM up to 0.0005 μM for 16 h. The LY-96 mRNA induction was quantified using the Quantigene 2.0 system (Affymetrix). The cells were lysed with Lysis Mixture containing Proteinase K. The working reagent for capturing the RNA was prepared according to the steps detailed in “Capturing Target RNA from Cultured Cell or Blood Lysates” in the Quantigene handbook. The subsequent hybridization with LY-96 probe, signal amplification and detection steps were performed as described in the manual. The chemiluminescence was read using Envision (PerkinElmer) and Abase (IDBS software) was used to plot the dose response curves and calculate IC50.

[2] = system: Kasumi-1; test: Kasumi-1 GI50 Assay; assay type: cell-based; conditions: Homo sapiens, 288 h; Kasumi-1 cells, 12 days, Cell Titer-Glo viability
Method: Cells were plated at 5,000 cells per well in 96 well tissue culture dishes containing tool compounds arrayed in a 10-point dose curve, ranging from […] with 4-fold dilutions, and split every fourth day at a fixed ratio to re-establish 5,000 cells/well density for DMSO-treated controls. Cell treatments were carried out for a total of 12 days. At each 4-day split, the viable cell numbers were determined using the Cell Titer-Glo luminescent cell viability assay (Promega, Madison, Wis. USA) using an EnVision® Multilabel Plate Reader (Perkin Elmer, Waltham, Mass. USA). GraphPad Prism 6 (GraphPad Software, Inc., La Jolla, Calif. USA) was used for curve fitting and determination of GI50 values.

| Structure (SMILES) | EC50 [1] [µM] | GI50 [2] [µM] |
| --- | --- | --- |
| CC/C(=C\c1ccccc1)[C@@H]1C[C@H]1NC1CC2(C1)CN(CCNC(C)=O)C2 [Compound 5, N-(2-(6-(((1R,2S)-2-((E)-1-phenylbut-1-en-2-yl)cyclopropyl)amino)-2-azaspiro[3.3]heptan-2-yl)ethyl)acetamide bis(2,2,2-trifluoroacetate)] | < 0.1 | < 0.1 |
| CC/C(=C\c1ccccc1)[C@@H]1C[C@H]1NC1CC2(C1)CN(CCNS(=O)(=O)C1CC1)C2 [Compound 6, N-(2-(6-(((1R,2S)-2-((E)-1-phenylbut-1-en-2-yl)cyclopropyl)amino)-2-azaspiro[3.3]heptan-2-yl)ethyl)cyclopropanesulfonamide bis(2,2,2-trifluoroacetate)] | < 0.1 | < 0.1 |
| CC/C(=C\c1ccccc1)[C@@H]1C[C@H]1NC1CC2(C1)CN(CCNS(=O)(=O)CC)C2 [Compound 7, N-(2-(6-(((1R,2S)-2-((E)-1-phenylbut-1-en-2-yl)cyclopropyl)amino)-2-azaspiro[3.3]heptan-2-yl)ethyl)ethanesulfonamide bis(2,2,2-trifluoroacetate)] | < 0.1 | < 0.1 |
| CC/C(=C\c1ccccc1)[C@@H]1C[C@H]1NC1CC2(C1)CN(CCNS(=O)(=O)C(C)C)C2 [Compound 8, N-(2-(6-(((1R,2S)-2-((E)-1-phenylbut-1-en-2-yl)cyclopropyl)amino)-2-azaspiro[3.3]heptan-2-yl)ethyl)propane-2-sulfonamide bis(2,2,2-trifluoroacetate)] | < 0.1 | < 0.1 |
| CC/C(=C\c1ccccc1)[C@@H]1C[C@H]1NC1CC2(C1)CN(CCNS(=O)(=O)CCOC)C2 [Compound 9, 2-methoxy-N-(2-(6-(((1R,2S)-2-((E)-1-phenylbut-1-en-2-yl)cyclopropyl)amino)-2-azaspiro[3.3]heptan-2-yl)ethyl)ethanesulfonamide bis(2,2,2-trifluoroacetate)] | < 0.1 | < 0.1 |
| CC/C(=C\c1ccccc1)[C@@H]1C[C@H]1NC1CC2(CCN(C(CO)CO)CC2)C1 [Compound 10, 2-(2-(((1R,2S)-2-((E)-1-phenylbut-1-en-2-yl)cyclopropyl)amino)-7-azaspiro[3.5]nonan-7-yl)propane-1,3-diol bis(2,2,2-trifluoroacetate)] | < 0.1 | < 0.1 |
| CC/C(=C\c1ccccc1)[C@@H]1C[C@H]1NC1CC2(C1)CN(C(C)(C)C(N)=O)C2 [Compound 14, 2-methyl-2-(6-(((1R,2S)-2-((E)-1-phenylbut-1-en-2-yl)cyclopropyl)amino)-2-azaspiro[3.3]heptan-2-yl)propanamide bis(2,2,2-trifluoroacetate)] | < 0.1 | < 0.1 |
| CC/C(=C\c1ccccc1)[C@@H]1C[C@H]1NC1CC2(C1)CN(CC(C)(C)NS(C)(=O)=O)C2 [Compound 15, N-(2-methyl-1-(6-(((1R,2S)-2-((E)-1-phenylbut-1-en-2-yl)cyclopropyl)amino)-2-azaspiro[3.3]heptan-2-yl)propan-2-yl)methanesulfonamide bis(2,2,2-trifluoroacetate)] | < 0.1 | < 0.1 |
| CC/C(=C\c1ccccc1)[C@@H]1C[C@H]1NC1CC2(CCN(C[C@@H](C)O)CC2)C1 [Compound 16, (R)-1-(2-(((1R,2S)-2-((E)-1-phenylbut-1-en-2-yl)cyclopropyl)amino)-7-azaspiro[3.5]nonan-7-yl)propan-2-ol dihydrochloride] | < 0.1 | < 0.1 |
| CC/C(=C\c1ccccc1)[C@@H]1C[C@H]1NC1CC2(CCN(CC(C)(C)O)CC2)C1 [Compound 18, 2-methyl-1-(2-(((1R,2S)-2-((E)-1-phenylbut-1-en-2-yl)cyclopropyl)amino)-7-azaspiro[3.5]nonan-7-yl)propan-2-ol dihydrochloride] | < 0.1 | < 0.1 |
| CC/C(=C\c1ccccc1)[C@@H]1C[C@H]1NC1CC2(CCN(C[C@@H](O)CO)CC2)C1 [Compound 19, (R)-3-(2-(((1R,2S)-2-((E)-1-phenylbut-1-en-2-yl)cyclopropyl)amino)-7-azaspiro[3.5]nonan-7-yl)propane-1,2-diol dihydrochloride] | < 0.1 | < 0.1 |
| CC/C(=C\c1ccccc1)[C@@H]1C[C@H]1NC1CC2(CCN(C[C@H](O)CO)CC2)C1 [Compound 20, (S)-3-(2-(((1R,2S)-2-((E)-1-phenylbut-1-en-2-yl)cyclopropyl)amino)-7-azaspiro[3.5]nonan-7-yl)propane-1,2-diol dihydrochloride] | < 0.1 | < 0.1 |
| CC/C(=C\c1ccccc1)[C@@H]1C[C@H]1NC1CC2(CCN(CCC(N)=O)CC2)C1 [Compound 24, 3-(2-(((1R,2S)-2-((E)-1-phenylbut-1-en-2-yl)cyclopropyl)amino)-7-azaspiro[3.5]nonan-7-yl)propanamide dihydrochloride] | < 0.1 | < 0.1 |
| CC/C(=C\c1ccccc1)[C@@H]1C[C@H]1NC1CC2(C1)CN(CC(=O)NCCS(C)(=O)=O)C2 [Compound 26, N-(2-(methylsulfonyl)ethyl)-2-(6-(((1R,2S)-2-((E)-1-phenylbut-1-en-2-yl)cyclopropyl)amino)-2-azaspiro[3.3]heptan-2-yl)acetamide bis(2,2,2-trifluoroacetate)] | < 0.1 | < 0.1 |
| CC/C(=C\c1ccccc1)[C@@H]1C[C@H]1NC1CC2(C1)CN(CC(=O)NC(C)C)C2 [Compound 27, N-isopropyl-2-(6-(((1R,2S)-2-((E)-1-phenylbut-1-en-2-yl)cyclopropyl)amino)-2-azaspiro[3.3]heptan-2-yl)acetamide bis(2,2,2-trifluoroacetate)] | < 0.1 | < 0.1 |
| CC/C(=C\c1ccccc1)[C@@H]1C[C@H]1NC1CC2(C1)CN(CC(=O)N(C)C)C2 [Compound 28, N,N-dimethyl-2-(6-(((1R,2S )-2-((E)-1-phenylbut-1-en-2-yl)cyclopropyl)amino)-2-azaspiro[3.3]heptan-2-yl)acetamide bis(2,2,2-trifluoroacetate)] | < 0.1 | < 0.1 |
| CC/C(=C\c1ccccc1)[C@@H]1C[C@H]1NC1CC2(C1)CN(CC(=O)NS(C)(=O)=O)C2 [Compound 29, N-(methylsulfonyl)-2-(6-(((1R,2S)-2-((E)-1-phenylbut-1-en-2-yl)cyclopropyl)amino)-2-azaspiro[3.3]heptan-2-yl)acetamide bis(2,2,2-trifluoroacetate)] | < 0.1 | < 0.1 |
| CC/C(=C\c1ccccc1)[C@@H]1C[C@H]1NC1CC2(C1)CN(C(C)C(N)=O)C2 (stereo partly drawn) [Compound 30, 2-(6-(((1R,2S)-2-((E)-1-phenylbut-1-en-2-yl)cyclopropyl)amino)-2-azaspiro[3.3]heptan-2-yl)propanamide bis(2,2,2-trifluoroacetate)] | < 0.1 | < 0.1 |
